Several values for one entry are separate records, joined by “and”; a condition that tells them apart may be missing. Equal entries are not always repeated.
Tested on: RPMI-8226 cells
Experiment: Gene expression profiling, NanoString nCounter PanCancer Pathways Panel, ROSALIND analysis
Type: cell-based, human
Conditions: RPMI-8226, TCH-165 samples 1-3
Procedure: RPMI-8226 cells were treated with vehicle or TCH-165 (10 μM) for 4 h. Total RNA was obtained using the mirVana miRNA Isolation Kit, with phenol (Thermofisher Scientific; AM1560; Waltham, MA, USA). Total RNA was quantified by Qubit (Thermofisher Scientific; Q32855; Waltham, MA, USA). and gene expression was evaluated against the nCounter® PanCancer Pathways Panel^TM according to the standard NanoString protocol.
Data were analyzed by ROSALIND® [36] with a hyperscale architecture developed by ROSALIND, Inc. (San Diego, CA, USA). Normalization, fold changes and p-values were calculated using criteria provided by NanoString. ROSALIND follows the nCounter® Advanced Analysis protocol of dividing counts within a lane by the geometric mean of the normalizer probes from the same lane. Housekeeping probes to be used for normalization are selected based on the geNorm algorithm, as implemented in the NormqPCR R library. Fold changes and p-values are calculated using the fast method as described in the nCounter Advanced Analysis 2.0 User Manual. The p-value adjustment is performed using the Benjamini–Hochberg method of estimating false discovery rates (FDR). Clustering of genes for the final heatmap of differentially expressed genes was done using the PAM (Partitioning Around Medoids) method using the fpc R library. Hypergeometric distribution was used to analyze the enrichment of pathways, gene ontology, domain structure and other ontologies. The topGO R library was used to determine local similarities and dependencies between GO terms in order to perform Elim pruning correction. Several database sources were referenced for enrichment analysis, including Interpro [40], NCBI [41], MSigDB [42, 43], REACTOME [44], WikiPathways. Enrichment was calculated relative to a set of background genes relevant to the experiment.

CCOC(=O)[C@]1(c2ccccc2)N=C(c2ccc(OC)cc2)N(Cc2ccccc2)[C@@H]1c1ccc(NCc2ccccc2)cc1 [TCH-165]
CDKN2A normalized gene expression: 7.059 and 6.817 and 7.045 | CDKN2B normalized gene expression: 5.827 and 5.402 and 5.787 | CDKN2C normalized gene expression: 2.401 and 2.3768 and 2.653 | CDKN2D normalized gene expression: 6.667 and 6.808 and 7.091 | CEBPA normalized gene expression: 4.308 and 4.029 and 4.291 | CEBPE normalized gene expression: 3.723 and 3.739 and 3.291 | CHAD normalized gene expression: 4.986 and 5.093 and 4.805 | CHEK1 normalized gene expression: 9.816 and 9.813 (2×) | CHEK2 normalized gene expression: 8.6438 and 8.491 and 8.618 | CHUK normalized gene expression: 8.745 and 8.67 and 8.685 | CIC normalized gene expression: 6.793 and 6.427 and 6.731 | CLCF1 normalized gene expression: 3.723 and 4.2133 and 3.184 | CNTFR normalized gene expression: 4.723 and 5.093 and 4.653 | COL1A1 normalized gene expression: 4.649 and 4.524 and 3.943 | COL1A2 normalized gene expression: 3.401 and 3.154 and 4.0068 | COL2A1 normalized gene expression: 6.015 and 6.817 and 6.494 | COL3A1 normalized gene expression: 4.86 and 4.093 and 4.731 | COL4A3 normalized gene expression: 6.182 and 5.798 and 6.156 | COL4A4 normalized gene expression: 3.208 and 3.739 and 4.613 | COL4A5 normalized gene expression: 4.571 and 3.962 and 3.876 | COL4A6 normalized gene expression: 3.208 and 3.476 and 3.0682 | COL5A1 normalized gene expression: 6.156 and 5.3768 and 5.823 | COL5A2 normalized gene expression: 4.649 and 4.524 and 4.184 | COL11A1 normalized gene expression: 4.793 and 4.029 and 4.184 | COL11A2 normalized gene expression: 3.571 and 3.029 and 2.483 | COMP normalized gene expression: 3.571 and 4.093 and 4.0682 | CREB5 normalized gene expression: 6.467 and 6.324 and 6.437 | CREBBP normalized gene expression: 5.488 and 4.855 and 5.156 | CSF1R normalized gene expression: 3.401 and 3.739 and 3.653 | CSF2 normalized gene expression: 3.86 and 4.029 and 3.291 | CSF3R normalized gene expression: 4.571 and 3.962 and 4.39 | CSF3 normalized gene expression: 4.208 and 3.739 and 3.805 | CTNNB1 normalized gene expression: 11.1942 and 11.0314 and 10.9756 | CUL1 normalized gene expression: 11.4237 and 11.3932 and 11.3628 | CXCL8 normalized gene expression: 7.908 and 8.053 and 8.0531 | CYLD normalized gene expression: 9.829 and 9.692 and 9.711 | DAXX normalized gene expression: 9.74 and 9.747 and 9.706 | DDB2 normalized gene expression: 8.97 and 9.039 and 9.005 | DDIT3 normalized gene expression: 11.9124 and 11.8557 and 11.855 | DDIT4 normalized gene expression: 9.959 and 9.961 and 9.982 | DKK1 normalized gene expression: 5.259 and 4.699 and 4.769 | DKK2 normalized gene expression: 5.488 and 4.657 and 4.805 | DKK4 normalized gene expression: 4.986 and 4.855 and 4.975 | DLL1 normalized gene expression: 4.308 and 4.029 and 3.5707 | DLL3 normalized gene expression: 5.101 and 4.427 and 4.5707 | DLL4 normalized gene expression: 5.401 and 4.817 and 5.211 | DNMT1 normalized gene expression: 10.7929 and 10.7224 and 10.7359 | DNMT3A normalized gene expression: 7.355 and 7.311 and 7.414 | DTX1 normalized gene expression: 5.156 and 5.402 and 5.592 | DTX4 normalized gene expression: 5.793 and 5.996 and 5.9095 | DUSP2 normalized gene expression: 6.378 and 6.364 and 6.623 | DUSP4 normalized gene expression: 7.667 and 7.581 and 7.494 | DUSP5 normalized gene expression: 10.8611 and 10.8321 and 10.8236 | DUSP6 normalized gene expression: 8.008 and 8.128 and 8.003 | DUSP8 normalized gene expression: 6.876 and 6.44 and 6.56 | DUSP10 normalized gene expression: 7.221 and 7.177 and 7.1906 | E2F1 normalized gene expression: 9.135 and 9.126 and 9.063 | E2F5 normalized gene expression: 9.349 and 9.291 and 9.221 | EFNA1 normalized gene expression: 6.283 and 5.2133 and 5.39 | EFNA2 normalized gene expression: 4.924 and 5.2133 and 5.0068 | EFNA3 normalized gene expression: 8.052 and 8.008 and 8.0531 | EFNA5 normalized gene expression: 5.649 and 4.739 and 4.943 | EGF normalized gene expression: 4.86 and 4.569 and 5.0682 | EGFR normalized gene expression: 5.892 and 5.524 and 5.461 | EIF4EBP1 normalized gene expression: 10.6929 and 10.6602 and 10.7353 | ENDOG normalized gene expression: 9.908 and 9.9873 and 9.891 | EP300 normalized gene expression: 9.491 and 9.463 and 9.424 | EPHA2 normalized gene expression: 3.208 and 2.891 and 1.805 | EPO normalized gene expression: 5.101 and 4.324 and 4.483 | EPOR normalized gene expression: 7.259 and 7.147 and 7.1271 | ERBB2 normalized gene expression: 6.044 and 5.427 and 5.291 | ERCC2 normalized gene expression: 6.924 and 6.657 and 6.5707 | ERCC6 normalized gene expression: 6.509 and 6.581 and 6.5707 | ETS2 normalized gene expression: 9.802 and 9.726 and 9.794 | ETV1 normalized gene expression: 9.48 and 9.485 and 9.458 | ETV4 normalized gene expression: 7.978 and 7.949 and 7.741 | ETV7 normalized gene expression: 4.723 and 4.962 and 4.528 | EYA1 normalized gene expression: 7.74 and 7.85 and 7.863 | EZH2 normalized gene expression: 10.3563 and 10.2507 and 10.2954 | FANCA normalized gene expression: 7.073 and 6.808 and 7.015 | FANCB normalized gene expression: 7.62 and 7.291 and 7.576 | FANCC normalized gene expression: 7.86 and 7.614 and 7.764 | FANCE normalized gene expression: 7.61 and 7.608 and 7.587 | FANCF normalized gene expression: 8.337 and 8.334 and 8.268 | FANCG normalized gene expression: 7.571 and 7.364 and 7.478 | FANCL normalized gene expression: 8.9359 and 8.968 and 8.918 | FAS normalized gene expression: 6.723 and 6.719 and 6.613 | FASLG normalized gene expression: 5.044 and 4.614 and 4.769 | FEN1 normalized gene expression: 11.0932 and 10.9634 and 10.9666 | FGF1 normalized gene expression: 4.723 and 4.524 and 5.098

From publication PMC9138505, “Small Molecule 20S Proteasome Enhancer Regulates MYC Protein Stability and Exhibits Antitumor Activity in Multiple Myeloma” (Biomedicines, 2022)
